Laboratory results as given in ChEMBL document CHEMBL1141887, “Design and synthesis of (E)-1,1,2-triarylethenes: novel inhibitors of the cyclooxygenase-2 (COX-2) isozyme” (Bioorg Med Chem Lett, 2005).

Molecular target: T1, Prostaglandin G/H synthase 1 (Ovis aries, UniProt P05979)
T1 sequence (P05979 whole entry): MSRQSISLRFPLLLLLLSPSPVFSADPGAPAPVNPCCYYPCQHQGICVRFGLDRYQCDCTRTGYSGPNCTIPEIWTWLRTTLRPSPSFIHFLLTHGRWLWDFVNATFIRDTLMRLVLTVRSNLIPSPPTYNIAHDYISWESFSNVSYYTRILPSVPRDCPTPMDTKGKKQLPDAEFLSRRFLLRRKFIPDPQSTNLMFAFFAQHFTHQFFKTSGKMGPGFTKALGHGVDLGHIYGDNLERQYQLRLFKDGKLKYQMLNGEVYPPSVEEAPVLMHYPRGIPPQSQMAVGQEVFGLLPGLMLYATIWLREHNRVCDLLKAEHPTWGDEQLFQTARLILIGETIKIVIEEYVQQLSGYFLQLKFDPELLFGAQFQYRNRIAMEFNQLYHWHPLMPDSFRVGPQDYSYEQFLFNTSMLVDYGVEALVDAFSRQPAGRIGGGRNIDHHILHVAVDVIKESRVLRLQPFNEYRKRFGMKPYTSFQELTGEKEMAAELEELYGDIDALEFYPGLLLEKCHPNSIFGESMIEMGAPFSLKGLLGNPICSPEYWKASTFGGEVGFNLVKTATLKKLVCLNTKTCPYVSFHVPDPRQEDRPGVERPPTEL
Assay: In vitro inhibitory concentration against ovine Cyclooxygenase-1

CS(=O)(=O)c1ccc(/C(=C/c2ccccc2)c2ccccc2)cc1
IC50: 0.14 µM

Cc1ccc(/C=C(\c2ccccc2)c2ccc(S(C)(=O)=O)cc2)cc1
IC50: > 100 µM

Cc1ccc(C(=Cc2ccc(S(C)(=O)=O)cc2)c2ccc(C)cc2)cc1
IC50: > 100 µM

CS(=O)(=O)c1ccc(C=C(c2ccc(F)cc2)c2ccc(F)cc2)cc1
IC50: > 100 µM

CS(=O)(=O)c1ccc(/C(=C/c2ccc(Cl)cc2)c2ccccc2)cc1
IC50: > 100 µM

CS(=O)(=O)c1ccc(/C(=C/c2ccc(F)cc2)c2ccccc2)cc1
IC50: > 100 µM

CS(=O)(=O)c1ccc(C=C(c2ccc(Cl)cc2)c2ccc(Cl)cc2)cc1
IC50: > 100 µM

CS(=O)(=O)c1ccc(/C(=C/c2ccc(F)c(F)c2)c2ccccc2)cc1
IC50: > 100 µM
